Assay [1] concerns the target human GLP-1 receptor (hGLP-1R) (Homo sapiens, UniProt P43220). In words: cAMP production (HTRF) in CHO cells expressing hGLP-1R. In kind it is cell-based. Set-up: expressed in transfected cells. Particulars: for pEC50: Table 6, peptides modified at position 17, cAMP in CHO hGLP-1R cells, geometric mean, read-out: hGLP-1R EC50; for % Relative Potency Ratio: Table 6, % GLP-1R activity relative to GLP-1 / % GlucR activity relative to glucagon. The procedure, abridged: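 Read-out: HTRF cAMP (anti-cAMP cryptate donor, cAMP-d2 acceptor in conjugate/lysis buffer), converted to % Delta F and fitted by 4-parameter logistic for EC50. Cell densities were 1×10^5 cells/mL (hGLP-1R) or 2×10^5 cells/mL (hGCGR). Stimulation lasted 30 min at room temperature.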

Assay [2] deals with human glucagon receptor (hGCGR) (Homo sapiens, UniProt P47871). In words: cAMP production (HTRF) in CHO cells expressing hGCGR. The class given is cell-based. The arrangement: expressed in transfected cells. The settings on record: Table 6, peptides modified at position 17; cAMP in CHO hGCGR cells; geometric mean; read-out: hGluc-R EC50. As for the experimental part:
Cells were re-suspended in assay buffer at a batch-dependent optimized concentration (typically hGLP-1R cells at 1×10^5 cells/mL, hGCGR cells at 2×10^5 cells/mL).
Cells were added to the assay plate using a multidrop dispenser and incubated at room temperature for 30 minutes before measuring the cAMP level using a cAMP dynamic 2 homogeneous time resolved Fluorescence (HTRF) kit (Cisbio Bioassays #62AM4PEJ) following the two-step protocol as per manufacturer's recommendations. In brief, anti-cAMP cryptate (donor fluorophore) and cAMP-d2 (acceptor fluorophore) were made up separately by diluting each 1 in 20 in conjugate and lysis buffer provided in the kit. Anti-CAMP cryptate was added to all wells of the assay plate, followed by cAMP-d2 added to all wells except non-specific binding (NSB) wells (to which conjugate and lysis buffer was added).
Data was transformed to % Delta F as described in the manufacturer's guidelines and analyzed by 4-parameter logistic fit to determine EC50 values.

pEC50: −log10 of the molar value. Starred links: 1 amine or outer side, 2 acyl side, 3 side chain; linkers in the order of their positions; H or OH if unused. Non-standard residues stand in square brackets, D forms with d. Residues, ends and D or L forms follow the SMILES beside them. Groups on a side chain read outwards from the residue. *: point of attachment. C20 diacid = O=C(O)CCCCCCCCCCCCCCCCCCC(=O)*; C18 diacid = O=C(O)CCCCCCCCCCCCCCCCC(=O)*; γGlu = O=C(O)[C@H](CCC(=O)[*:2])N[*:1]; αMeF = C[C@](N)(Cc1ccccc1)C(=O)O; AEEA = NCCOCCOCC(=O)O; Aib = CC(C)(N)C(=O)O

Usually pEC50 stands for −log10 of the EC50, conventionally taken in molar units.

Chain of human GLP-1 receptor (hGLP-1R) (P43220 24-463): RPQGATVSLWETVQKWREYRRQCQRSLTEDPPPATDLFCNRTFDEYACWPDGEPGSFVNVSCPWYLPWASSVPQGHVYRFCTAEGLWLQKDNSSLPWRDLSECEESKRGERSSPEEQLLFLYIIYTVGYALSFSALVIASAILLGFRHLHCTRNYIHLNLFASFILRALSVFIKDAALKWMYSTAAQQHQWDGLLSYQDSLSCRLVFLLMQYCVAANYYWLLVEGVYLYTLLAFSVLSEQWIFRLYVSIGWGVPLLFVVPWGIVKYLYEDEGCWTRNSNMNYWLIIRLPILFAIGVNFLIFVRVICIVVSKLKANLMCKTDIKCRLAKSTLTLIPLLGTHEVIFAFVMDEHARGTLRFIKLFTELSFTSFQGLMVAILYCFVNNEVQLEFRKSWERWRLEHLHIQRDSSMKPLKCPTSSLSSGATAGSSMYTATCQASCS
Chain of human glucagon receptor (hGCGR) (P47871 26-477): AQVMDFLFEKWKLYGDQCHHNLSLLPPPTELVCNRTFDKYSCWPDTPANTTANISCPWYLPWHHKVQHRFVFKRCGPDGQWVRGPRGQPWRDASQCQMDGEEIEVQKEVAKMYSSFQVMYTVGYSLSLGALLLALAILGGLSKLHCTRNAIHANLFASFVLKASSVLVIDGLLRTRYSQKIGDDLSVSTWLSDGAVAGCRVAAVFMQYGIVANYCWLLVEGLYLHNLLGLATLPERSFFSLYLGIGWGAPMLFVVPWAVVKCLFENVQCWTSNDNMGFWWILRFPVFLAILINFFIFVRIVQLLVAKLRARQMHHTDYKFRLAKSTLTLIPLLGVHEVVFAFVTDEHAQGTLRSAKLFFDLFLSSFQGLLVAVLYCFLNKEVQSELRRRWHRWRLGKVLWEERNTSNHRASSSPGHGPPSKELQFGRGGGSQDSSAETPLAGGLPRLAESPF

Turning to `CC[C@H](C)[C@H](NC(=O)C(C)(C)NC(=O)[C@H](C)NC(=O)[C@@H](NC(=O)[C@](C)(Cc1ccccc1)NC(=O)[C@H](CC(=O)O)NC(=O)[C@H](CCCNC(=N)N)NC(=O)[C@H](C)NC(=O)[C@H](C)NC(=O)[C@H](CCCCNC(=O)COCCOCCNC(=O)COCCOCCNC(=O)CC[C@H](NC(=O)CCCCCCCCCCCCCCCCC(=O)O)C(=O)O)NC(=O)[C@H](CO)NC(=O)[C@H](CC(=O)O)NC(=O)[C@H](CC(C)C)NC(=O)[C@](C)(Cc1ccccc1)NC(=O)[C@H](CCCCN)NC(=O)[C@H](CO)NC(=O)[C@@H](NC(=O)[C@H](CC(=O)O)NC(=O)[C@H](CO)NC(=O)[C@@H](NC(=O)[C@](C)(Cc1ccccc1)NC(=O)[C@H](CO)NC(=O)CNC(=O)[C@H](Cc1c[nH]cn1)NC(=O)C(C)(C)NC(=O)[C@@H](N)Cc1c[nH]cn1)[C@@H](C)O)C(C)C)[C@@H](C)CC)C(=O)N[C@@H](C)C(=O)N[C@@H](CC(N)=O)C(=O)N[C@H](C(N)=O)[C@@H](C)O` [Peptide 16] (H-H[Aib]HGS[αMeF]TSDVSK[αMeF]LDSK([AEEA-AEEA-γGlu-C18 diacid])AARD[αMeF]IA[Aib]IANT-NH2; N-terminus assumed), the pEC50 was 10.48 in assay [1] and 9.98 in assay [2]. Further, the “% Relative Potency Ratio” value in assay [1] amounted to 6.3.
For `CC[C@H](C)[C@H](NC(=O)[C@H](CO)NC(=O)[C@H](CCC(=O)O)NC(=O)[C@@H](NC(=O)[C@](C)(Cc1ccccc1)NC(=O)[C@H](CC(=O)O)NC(=O)[C@H](CCCNC(=N)N)NC(=O)[C@H](C)NC(=O)[C@H](C)NC(=O)[C@H](CCCCNC(=O)COCCOCCNC(=O)COCCOCCNC(=O)CC[C@H](NC(=O)CCCCCCCCCCCCCCCCC(=O)O)C(=O)O)NC(=O)[C@H](CO)NC(=O)[C@H](CC(=O)O)NC(=O)[C@H](CC(C)C)NC(=O)[C@](C)(Cc1ccccc1)NC(=O)[C@H](CCCCN)NC(=O)[C@H](CO)NC(=O)[C@@H](NC(=O)[C@H](CC(=O)O)NC(=O)[C@H](CO)NC(=O)[C@@H](NC(=O)[C@](C)(Cc1ccccc1)NC(=O)[C@H](CO)NC(=O)CNC(=O)[C@H](Cc1c[nH]cn1)NC(=O)C(C)(C)NC(=O)[C@@H](N)Cc1c[nH]cn1)[C@@H](C)O)C(C)C)C(C)C)C(=O)N[C@@H](C)C(=O)N[C@@H](CC(N)=O)C(=O)N[C@H](C(N)=O)[C@@H](C)O` [Peptide 17] (H-H[Aib]HGS[αMeF]TSDVSK[αMeF]LDSK([AEEA-AEEA-γGlu-C18 diacid])AARD[αMeF]VESIANT-NH2; N-terminus assumed), in assay [1], the pEC50 was 10.35 and the “% Relative Potency Ratio” value is on record as 5.9. For the same molecule, the pEC50 in assay [2] is 9.87.
In the case of `CC[C@H](C)[C@H](NC(=O)[C@H](CO)NC(=O)[C@H](CCC(N)=O)NC(=O)[C@@H](NC(=O)[C@](C)(Cc1ccccc1)NC(=O)[C@H](CC(=O)O)NC(=O)[C@H](CCCNC(=N)N)NC(=O)[C@H](C)NC(=O)[C@H](C)NC(=O)[C@H](CCCCNC(=O)COCCOCCNC(=O)COCCOCCNC(=O)CC[C@H](NC(=O)CCCCCCCCCCCCCCCCC(=O)O)C(=O)O)NC(=O)[C@H](CO)NC(=O)[C@H](CC(=O)O)NC(=O)[C@H](CC(C)C)NC(=O)[C@](C)(Cc1ccccc1)NC(=O)[C@H](CCCCN)NC(=O)[C@H](CO)NC(=O)[C@@H](NC(=O)[C@H](CC(=O)O)NC(=O)[C@H](CO)NC(=O)[C@@H](NC(=O)[C@](C)(Cc1ccccc1)NC(=O)[C@H](CO)NC(=O)CNC(=O)[C@H](Cc1c[nH]cn1)NC(=O)C(C)(C)NC(=O)[C@@H](N)Cc1c[nH]cn1)[C@@H](C)O)C(C)C)C(C)C)C(=O)N[C@@H](C)C(=O)N[C@@H](CC(N)=O)C(=O)N[C@H](C(N)=O)[C@@H](C)O` [Peptide 18] (H-H[Aib]HGS[αMeF]TSDVSK[αMeF]LDSK([AEEA-AEEA-γGlu-C18 diacid])AARD[αMeF]VQSIANT-NH2; N-terminus assumed), the pEC50 in assay [1] is 10.69; in assay [2], 9.92. The “% Relative Potency Ratio” value in assay [1] worked out at 11.7.
For `CC[C@H](C)[C@H](NC(=O)C(C)(C)NC(=O)[C@H](CCC(N)=O)NC(=O)[C@@H](NC(=O)[C@](C)(Cc1ccccc1)NC(=O)[C@H](CC(=O)O)NC(=O)[C@H](CCCNC(=N)N)NC(=O)[C@H](C)NC(=O)[C@H](C)NC(=O)[C@H](CCCCNC(=O)COCCOCCNC(=O)COCCOCCNC(=O)CC[C@H](NC(=O)CC[C@H](NC(=O)CCCCCCCCCCCCCCCCC(=O)O)C(=O)O)C(=O)O)NC(=O)[C@H](CO)NC(=O)[C@H](CC(=O)O)NC(=O)[C@H](CC(C)C)NC(=O)[C@](C)(Cc1ccccc1)NC(=O)[C@H](CCCCN)NC(=O)[C@H](CO)NC(=O)[C@@H](NC(=O)[C@H](CC(=O)O)NC(=O)[C@H](CO)NC(=O)[C@@H](NC(=O)[C@](C)(Cc1ccccc1)NC(=O)[C@H](CO)NC(=O)CNC(=O)[C@H](Cc1c[nH]cn1)NC(=O)C(C)(C)NC(=O)[C@@H](N)Cc1c[nH]cn1)[C@@H](C)O)C(C)C)C(C)C)C(=O)N[C@@H](C)C(=O)N[C@@H](CC(N)=O)C(=O)N[C@H](C(N)=O)[C@@H](C)O` [Peptide 19] (H-H[Aib]HGS[αMeF]TSDVSK[αMeF]LDSK([AEEA-AEEA-γGlu-γGlu-C18 diacid])AARD[αMeF]VQ[Aib]IANT-NH2; N-terminus assumed) the same measures were 10.42, 9.87 and 6.9.
Take `CC[C@H](C)[C@H](NC(=O)C(C)(C)NC(=O)[C@H](CCC(=O)O)NC(=O)[C@@H](NC(=O)[C@](C)(Cc1ccccc1)NC(=O)[C@H](CC(=O)O)NC(=O)[C@H](CCCNC(=N)N)NC(=O)[C@H](C)NC(=O)[C@H](C)NC(=O)[C@H](CCCCNC(=O)COCCOCCNC(=O)COCCOCCNC(=O)CC[C@H](NC(=O)CC[C@H](NC(=O)CCCCCCCCCCCCCCCCC(=O)O)C(=O)O)C(=O)O)NC(=O)[C@H](CO)NC(=O)[C@H](CC(=O)O)NC(=O)[C@H](CC(C)C)NC(=O)[C@](C)(Cc1ccccc1)NC(=O)[C@H](CCCCN)NC(=O)[C@H](CO)NC(=O)[C@@H](NC(=O)[C@H](CC(=O)O)NC(=O)[C@H](CO)NC(=O)[C@@H](NC(=O)[C@](C)(Cc1ccccc1)NC(=O)[C@H](CO)NC(=O)CNC(=O)[C@H](Cc1c[nH]cn1)NC(=O)C(C)(C)NC(=O)[C@@H](N)Cc1c[nH]cn1)[C@@H](C)O)C(C)C)C(C)C)C(=O)N[C@@H](C)C(=O)N[C@@H](CC(N)=O)C(=O)N[C@H](C(N)=O)[C@@H](C)O` [Peptide 20] (H-H[Aib]HGS[αMeF]TSDVSK[αMeF]LDSK([AEEA-AEEA-γGlu-γGlu-C18 diacid])AARD[αMeF]VE[Aib]IANT-NH2; N-terminus assumed): the pEC50 is 9.82 in assay [1] and 9.87 in assay [2]. The “% Relative Potency Ratio” value in assay [1] amounted to 1.8.
For `CC[C@H](C)[C@H](NC(=O)[C@H](CO)NC(=O)[C@H](CCC(=O)O)NC(=O)[C@@H](NC(=O)[C@](C)(Cc1ccccc1)NC(=O)[C@H](CC(=O)O)NC(=O)[C@H](CCC(N)=O)NC(=O)[C@H](C)NC(=O)[C@H](C)NC(=O)[C@H](CCCCNC(=O)CC[C@H](NC(=O)CCCCCCCCCCCCCCCCC(=O)O)C(=O)O)NC(=O)[C@H](CO)NC(=O)[C@H](CC(=O)O)NC(=O)[C@H](CC(C)C)NC(=O)[C@](C)(Cc1ccccc1)NC(=O)[C@H](CCCCN)NC(=O)[C@H](CO)NC(=O)[C@@H](NC(=O)[C@H](CC(=O)O)NC(=O)[C@H](CO)NC(=O)[C@@H](NC(=O)[C@](C)(Cc1ccccc1)NC(=O)[C@H](CO)NC(=O)CNC(=O)[C@H](Cc1c[nH]cn1)NC(=O)C(C)(C)NC(=O)[C@@H](N)Cc1c[nH]cn1)[C@@H](C)O)C(C)C)C(C)C)C(=O)N[C@@H](C)C(=O)N[C@@H](CC(N)=O)C(=O)N[C@H](C(N)=O)[C@@H](C)O` [Peptide 21] (H-H[Aib]HGS[αMeF]TSDVSK[αMeF]LDSK([γGlu-C18 diacid])AAQD[αMeF]VESIANT-NH2; N-terminus assumed) the same measures were 9.42, 10.16 and 0.4.
The like results for `CC[C@H](C)[C@H](NC(=O)[C@H](CO)NC(=O)[C@H](CCC(=O)O)NC(=O)[C@@H](NC(=O)[C@](C)(Cc1ccccc1)NC(=O)[C@H](CC(=O)O)NC(=O)[C@H](CCC(N)=O)NC(=O)[C@H](C)NC(=O)[C@H](C)NC(=O)[C@H](CCCCNC(=O)COCCOCCNC(=O)COCCOCCNC(=O)CC[C@H](NC(=O)CC[C@H](NC(=O)CCCCCCCCCCCCCCCCCCC(=O)O)C(=O)O)C(=O)O)NC(=O)[C@H](CO)NC(=O)[C@H](CC(=O)O)NC(=O)[C@H](CC(C)C)NC(=O)[C@](C)(Cc1ccccc1)NC(=O)[C@H](CCCCN)NC(=O)[C@H](CO)NC(=O)[C@@H](NC(=O)[C@H](CC(=O)O)NC(=O)[C@H](CO)NC(=O)[C@@H](NC(=O)[C@](C)(Cc1ccccc1)NC(=O)[C@H](CO)NC(=O)CNC(=O)[C@H](Cc1c[nH]cn1)NC(=O)C(C)(C)NC(=O)[C@@H](N)Cc1c[nH]cn1)[C@@H](C)O)C(C)C)C(C)C)C(=O)N[C@@H](C)C(=O)N[C@@H](CC(N)=O)C(=O)N[C@H](C(N)=O)[C@@H](C)O` [Peptide 22] (H-H[Aib]HGS[αMeF]TSDVSK[αMeF]LDSK([AEEA-AEEA-γGlu-γGlu-C20 diacid])AAQD[αMeF]VESIANT-NH2; N-terminus assumed) were, in that order, 8.91, 8.56 and 4.4.

Values taken from patent US20250353891A1 (MEDIMMUNE LIMITED, priority 2022, published 2025).
